Values quoted from earlier work, collected in paper PMC6105164 (Cancer Chemotherapy and Pharmacology, 2018).

Assays:
[1] = tested on: patients with KRAS mutations; set-up: method as in PMID 24024839, PMID 18316791, PMID 23182985; conditions: cited from earlier work
[2] = tested on: prenylation of RAS; set-up: method as in PMID 22020205, PMID 15084616, PMID 15459217; conditions: cited from earlier work

Row | Molecule | efficacy [1] | activity in clinical trials [2]
1 | panitumumab: EGF receptor inhibitor | a little efficacy | –
2 | Cn1cncc1[C@@](N)(c1ccc(Cl)cc1)c1ccc2c(c1)c(-c1cccc(Cl)c1)cc(=O)n2C [tipifarnib] | – | a little activity
